Experimental data from PubChem BioAssay AID1963827 (Molecular Pharmacology Branch, DTP, NCI, 2024).
pIC50: −log10 of the molar value. “And” between values parts separate entries of the source, which are not always exact repeats. Identical values can stand only once.

Test system: 994946-033-R-J1-PDC complex spheroid viability
Experiment: Anticancer human tumor 994946-033-R-J1-PDC patient-derived melanoma cell line growth inhibition [POLQ]
Conditions: for viability, T/C: stronger effect = lower value; active means viability on the fitted dose curve at most 10% of control; inactive means the rest
Protocol: Multicellular complex tumor spheroid response to Polymerase (POL) inhibitors (novobiocin, ART-558, RP6685) in combination with a variety of drugs and investigational agents in selected tumor cell lines
The POL inhibitors (novobiocin, ART-558, and RP6685) were evaluated both individually and in combination with standard of care and investigational anticancer small molecules within a complex spheroid model of solid tumors. . Complex spheroids include a stromal component modeled by human endothelial cells (HUVEC) and fibroblasts modeled by human mesenchymal stem cells (MSCs). The concentration ranges selected for each drug and investigational agent were based upon clinically achievable concentrations if the clinical Cmax of the agent was known.
Compounds. The drugs and investigational agents: novobiocin (NSC847541), ART-558 (NSC835418), RP-6685 (NSC848927), peposertib (NSC802822), ceralasertib (NSC780249), elimusertib (NSC800525), camonsertib (NSC841442), AZD-1390 (NSC803789), olaparib (NSC753686), talazoparib (NSC767125), rucaparib (NSC756644), sotorasib (NSC818433), MRTX-1133 (NSC836407), SN-38 (NSC673596), topotecan (NSC609699), epotoside (NSC141540), doxorubicin (NSC123127), gemcitabine (NSC613327), 5-fluorouracil (NSC19893), paclitaxel (NSC125973), vemurafenib (NSC761431), MSA-2 (NSC828583), SN-011 (NSC837082), adavosertib (NSC754352), prexasertib (NSC758257), carboplatin (NSC241240) and oxaliplatin (NSC266046), were obtained from the National Cancer Institute (NCI) Developmental Therapeutics Program Chemical Repository (21). The FDA-approved anticancer drug set is available from the Developmental Therapeutics Program at https://dtp.cancer.gov/organization/dscb/obtaining/. […] The stock solutions were prepared in dimethyl sulfoxide (DMSO, Sigma-Aldrich, St. Louis, MO, cat. D2650), except for the platinum compounds which were prepared in saline (Quality Biological, Gaithersburg, MD, cat. 114-055-101), at 800-fold the tested concentration and stored at -70 degrees C prior to their use. All drugs and investigational agents were tested over a range starting from a high concentration at or near the clinical Cmax and decreasing in half-log increments. If the clinical Cmax for an agent had not been determined, the highest concentration tested was 10 microM, except for SN-38, which was tested at a high concentration of 1 microM.
Cell Culture. All cells were maintained in an incubator at 37 degrees C and 5% CO2 with 95% humidity. The PDC lines were cultured according to standard operating procedures established by the NCI PDMR (https://pdmr.cancer.gov). Table 3 of the manuscript, lists the cell lines along with the number of the three cell types plated to form the mct-spheroids and media for tumor cell growth. After thawing, all PDC lines, except 997537-175-T-J1-PDC and 415267-285-R-J2-PDC, were cultured in Matrigel-coated flasks prepared with a working solution of 1X Ham's F-12 nutrient mix, without supplementation (Thermo Fisher Scientific, cat. 11765054), 100 U/mL penicillin-streptomycin (Thermo Fisher Scientific, cat. 15140122), and 2.5% Matrigel (Corning Inc., Corning, NY, cat. 354248) for the first three passages. The two PDC lines 997537-175-T-J1-PDC and 415267-285-R-J2-PDC were cultured on uncoated flasks. The 857933-349-R-J2-PDC line was cultured in 6C/Colon 1B media containing advanced DMEM/F-12 (Thermo Fisher Scientific, cat. 12634028), 10 mM HEPES (Thermo Fisher Scientific, cat. 15630080), 1X GlutaMAX supplement (Thermo Fisher Scientific, cat. 35050061), 0.1 mg/mL primocin (InvivoGen, San Diego, CA, cat. ant-pm-2), 10% defined fetal bovine serum, heat inactivated (HyClone Laboratories Inc., Logan, UT, cat. SH30070.03HI), 50% L-WRN conditioned media (ATCC, cat. CRL-3276), 1.25 mM N-Acetyl-L-cysteine (Sigma-Aldrich, cat. A9165), 10 mM nicotinamide (Sigma-Aldrich, cat. N0636), 1X B-27 supplement (Thermo Fisher Scientific, cat. 17504044), 1X N-2 supplement (Thermo Fisher Scientific, cat. […]
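Further: spheroids exposed to drugs for 7 days.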
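Wherever viability, T/C is given: 100% = DMSO vehicle treated spheroids.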

C=CC(=O)N1CCN(c2nc(=O)n(-c3c(C)ccnc3C(C)C)c3nc(-c4c(O)cccc4F)c(F)cc23)C(C)C1 (stereo not given) + Cc1cccc(N(C)C(=O)C2C(O)CCN2c2nc(C)cc(C(F)(F)F)c2C#N)c1
< 5.00: pIC50 (curve of first compound, second compound 0.0316 µM) | pIC50 (curve of first compound, second compound 0.1 µM) | pIC50 (curve of first compound, second compound 0.316 µM) | pIC50 (curve of first compound, second compound 1 µM) | pIC50 (curve of first compound, second compound 3.16 µM) | pIC50 (curve of first compound, second compound 10 µM)
inactive: viability, T/C (second compound 0.0316 µM, first compound 0.0316 µM) 75.8% | viability, T/C (second compound 0.0316 µM, first compound 0.1 µM) 101% | viability, T/C (second compound 0.0316 µM, first compound 0.316 µM) 112% | viability, T/C (second compound 0.0316 µM, first compound 1 µM) 126% | viability, T/C (second compound 0.0316 µM, first compound 3.16 µM) 110% | viability, T/C (second compound 0.0316 µM, first compound 10 µM) 132% | viability, T/C (second compound 0.1 µM, first compound 0.0316 µM) 94.5% | viability, T/C (second compound 0.1 µM, first compound 0.1 µM) 118% | viability, T/C (second compound 0.1 µM, first compound 0.316 µM) 129% | viability, T/C (second compound 0.1 µM, first compound 1 µM) 123% | viability, T/C (second compound 0.1 µM, first compound 3.16 µM) 119% | viability, T/C (second compound 0.1 µM, first compound 10 µM) 113% | viability, T/C (second compound 0.316 µM, first compound 0.0316 µM) 115% | viability, T/C (second compound 0.316 µM, first compound 0.1 µM) 114% | viability, T/C (second compound 0.316 µM, first compound 0.316 µM) 94.2% | viability, T/C (second compound 0.316 µM, first compound 1 µM) 140% | viability, T/C (second compound 0.316 µM, first compound 3.16 µM) 123% | viability, T/C (second compound 0.316 µM, first compound 10 µM) 93.8% | viability, T/C (second compound 1 µM, first compound 0.0316 µM) 113% | viability, T/C (second compound 1 µM, first compound 0.1 µM) 109% | viability, T/C (second compound 1 µM, first compound 0.316 µM) 91.1% | viability, T/C (second compound 1 µM, first compound 1 µM) 107% | viability, T/C (second compound 1 µM, first compound 3.16 µM) 90.2% | viability, T/C (second compound 1 µM, first compound 10 µM) 93.9% | viability, T/C (second compound 3.16 µM, first compound 0.0316 µM) 130% | viability, T/C (second compound 3.16 µM, first compound 0.1 µM) 104% | viability, T/C (second compound 3.16 µM, first compound 0.316 µM) 132% | viability, T/C (second compound 3.16 µM, first compound 1 µM) 119% | viability, T/C (second compound 3.16 µM, first compound 3.16 µM) 105% | viability, T/C (second compound 3.16 µM, first compound 10 µM) 129% | viability, T/C (second compound 10 µM, first compound 0.0316 µM) 84.7% | viability, T/C (second compound 10 µM, first compound 0.1 µM) 101% | viability, T/C (second compound 10 µM, first compound 0.316 µM) 105% | viability, T/C (second compound 10 µM, first compound 1 µM) 115% | viability, T/C (second compound 10 µM, first compound 3.16 µM) 96.3% | viability, T/C (second compound 10 µM, first compound 10 µM) 106%

COC1C(OC(N)=O)C(O)C(Oc2ccc3c(O)c(NC(=O)c4ccc(O)c(CC=C(C)C)c4)c(=O)oc3c2C)OC1(C)C (stereo not given)
< 5.00: pIC50 (compound alone, run of 10/31/2023)

CC1COCCN1c1cc(C2(S(C)(=N)=O)CC2)nc(-c2ccnc3[nH]ccc23)n1 (stereo not given)
inactive: viability, T/C (compound 0.0316 µM) 106% and 105% and 113% | viability, T/C (compound 0.1 µM) 112% and 97.5% and 98.7% | viability, T/C (compound 0.316 µM) 90.5% and 86.8% and 93.9% | viability, T/C (compound 1 µM) 70.6% and 57.9% and 68.7% | viability, T/C (compound 3.16 µM) 42% and 44.5% and 52% | viability, T/C (compound 10 µM) 56.6% and 52.9% and 32.3%
5.09 and 5.54 and 5.47: pIC50 (curve of compound)
